US10512641B2, “Chloroquine induction par-4 and treatment of cancer” (University of Kentucky Research Foundation, priority 2015, dated 2019)

Tests used:
Par-4 [1] = assay: Par-4 secretion in wild type or p53-null MEFs, Western blot; format: cell-based, mouse; details: CQ 25 μM, Arylquin-1, Nutlin-3a 10 μM, 24 h
Par-4 [2] = details: Burikhanov et al. (2014); cited from earlier work
Par-4 [3] = assay: BFA sensitivity of CQ-induced Par-4 in MEFs; format: cell-based, mouse; details: MEFs pre-treated with BFA 10 μg/ml 30 minutes, then CQ 50 μM 5 h
Source text: (§4) The CM and lysates were examined by Western blot analysis with the indicated antibodies.

Par-4 [4] = assay: ICC analysis of Par-4 localization in Rab8b coated vesicles; format: cell-based
Method: An immunocytochemical (ICC) analysis was performed to determine the localization of Par-4 in Rab8b coated vesicles.

Rab8b = Rab8b and Rab8a expression (protein, real-time PCR); format: cell-based
Method: (§1) Testing was performed to determine whether the expression of Rab genes containing putative p53 binding sites in their promoter region were essential for Par-4 secretion.
The guardian of the genome, p53 binds to a consensus motif 5′-PuPuPuC4(A/T)(A/T)G7PyPyPy

Par-4 [5] = assay: Par-4 secretion in conditioned medium of prostate and lung cancer cell lines, Western blot; format: cell-based, human; details: prostate cancer cells LNCaP, C4-2B, DU145, PC-3; CQ 1-100 μM, 24 h
Source text: (§2) The conditioned medium (CM), as well as the whole-cell lysates were subjected to Western blot analysis with the antibodies specific for Par-4, Collagen (Col1A1), albumin, or actin. Col1A1 served as a loading control for protein secretion, as it is generally unchanged in response to the treatments. The samples were also subjected to SDS/PAGE and Coomassie blue staining to determine albumin levels in serum from the CM as another loading control.

p53 [6] = details: MEFs, CQ 25 μM, 24 h
Par-4 [7] = assay: Par-4 secretion in Rab8b-null and Rab8b reconstituted MEFs; format: cell-based, mouse
Method: as §1

LLC1 cells = assay: Apoptosis of LLC1 cells by CM from CQ-treated MEFs; format: cell-based, mouse; details: CQ 20 μM, 24 h; not with Par-4-/- MEFs
Method: After 24 h, the cells were scored for apoptosis. *P<0.0001 by the Student's t-test.

cancer cells [8] = assay: Apoptosis (ICC for active caspase-3) of cells exposed to CQ-treated MEFs or their CM; format: cell-based, human
Method: After 24 h, the cells were subjected to immunocytochemistry (ICC) for active caspase-3 and apoptotic cells were scored under a fluorescent microscope.
After 24 h, the cells were scored for apoptosis.
A total of three independent experiments were performed; and approximately 500 cells were scored in each experiment for apoptosis under a fluorescent microscope.

A549 lung cancer cells = details: A549 cells, 0, 2, 4 Gy, CQ 10 μM or 20 μM
[9] = tested on: Mel 1617 and Mel 1617BR melanoma cancer cells; details: CQ 1 μM or 5 μM, 0 and 4 Gy
H460 or LLC1 cells = assay: Subcutaneous H460 or LLC1 tumor xenografts in nude mice; format: in vivo, mouse; details: LLC1- or H460-derived flank tumors, CQ 25 mg/kg IP once daily
Par-4 [10] = assay: Par-4 secretion in conditioned medium of MEFs, Western blot; format: cell-based, mouse; details: wild type (p53+/+) MEFs; CQ 1-100 μM, 24 h
Source text: as §2

p53 [11] = tested on: p53
UACA = UACA and NF-κB-regulated gene expression, Western blot; format: cell-based; details: for expression of UACA: 24 h
Source text: as §4

Par-4 [12] = assay: Par-4 secretion in conditioned medium of normal human cells, Western blot; format: cell-based; details: normal human PrSC, PrEC, HEL, HBEC; CQ 1-100 μM, 24 h
Source text: as §2

Par-4 [13] = assay: Par-4 mRNA by qRT-PCR in MEFs; format: cell-based, mouse; details: CQ 25 μM, 24 h, normalized to GAPDH
Source text: The data were normalized relative to a GAPDH control. (see FIG. 8C).

cancer cells [14] = assay: Ex vivo apoptosis of cancer cells by post-HCQ patient serum; format: cell-based, human; details: PC-3, H460, HOP92, H1299; 20% serum, 24 h; relative to pre-HCQ serum
Method: (§3) Aliquots of pre-HCQ or post-HCQ treatment serum samples from the patient were transferred to cancer cell cultures (20% final concentration). After 24 h, the cells were scored for apoptosis by ICC for active caspase-3. Fetal bovine serum (FBS, 10%) was used as an additional control. An asterisk (*) indicates statistical significance (P<0.001) by the Student's t-test. […] Importantly, apoptosis of cancer cells by post-treatment serum from the patient was neutralized by the Par-4 antibody (P) or GRP78 antibody (G), but not by control antibody (C) (FIG. 2E).

Par-4 [15] = assay: Par-4 in serum of renal cell carcinoma patients given HCQ, Western blot; format: in vivo, human
Method: Serum samples were collected from renal cell carcinoma patients who were given safe oral doses (400 mg daily for 2-weeks) of HCQ pre-operatively at the University of Pittsburgh, as part of a clinical trial in 2010-2011. Pre-HCQ treatment and post-HCQ treatment serum samples were collected and frozen. In 2013-2014, they were processed by Western blot analysis.
as §3

Par-4 [16] = assay: Par-4 secretion from MEFs treated with chloroquine, curcumin, ibuprofen or combinations; format: cell-based, mouse; details: 24 h
Method: To determine whether curcumin or ibuprofen enhanced the secretion of Par-4 in cells treated with chloroquine, MEFs were treated with chloroquine (25 μM), curcumin (5 μM and 10 μM) or ibuprofen (500 μM or 750 μM) or combinations of chloroquine and curcumin or ibuprofen for 24 hours at 37° C.
as §2, with “lysates,” for “lysates”

For CN(C)c1ccc2cc(-c3ccccc3F)c(N)nc2c1 [Arylquin-1], the Par-4 secretion (Par-4 [1]) is given as “robust induction of Par-4 secretion” and the “secretion of Par-4 from normal cells in mice” value (“secretion … in mice” for short) (Par-4 [2]) is given as “can increase secretion of Par-4”.
For C[C@H]1CCC/C=C/[C@@H]2C[C@H](O)C[C@H]2[C@H](O)/C=C/C(=O)O1 [BFA], the “effect on CQ-induced Par-4 expression” value (Par-4 [3]) was “CQ-induced Par-4 expression was inhibited” and the “entry of Par-4 into Rab8b vesicles” value (Par-4 [4]; CQ-treated cells plus BFA) was “prevented Par-4 from entering the Rab8b vesicles”.
In the case of CCN(CC)CCCC(C)Nc1ccnc2cc(Cl)ccc12 (stereo not drawn) [CQ, chloroquine diphosphate], the Rab8b induction (Rab8b; cancer cells) is reported as “not in cancer cells”, the Rab8b induction (Rab8b; normal human cells) is reported as “induced Rab8b in normal human cells” and the Rab8b protein levels (Rab8b; p53 wild type cells) is reported as “enhanced Rab8b protein levels”. For the same compound, the “Rab8b mRNA” value (Rab8b; quantitative real-time PCR) was “induced Rab8b mRNA in a p53-dependent manner”, the Rab8a expression (Rab8b; wild type MEFs) was “not Rab8a expression” and the Rab8b expression (Rab8b; wild type MEFs) was “induced Rab8b expression”. The Par-4 secretion (Par-4 [5]) was “neither induced Par-4 secretion”, the p53-dependent transcription (p53 [6]) was “increased p53-dependent transcription” and the “induction of Par-4 secretion” value (Par-4 [7]; Rab8b-null MEF cells (not Rab8a-null MEF cells)) was “failed to show induction of Par-4 secretion”. For the same compound, the Par-4 secretion (Par-4 [7]; Rab8b-null MEFs transfected with mouse Rab8b expression construct) was “induced Par-4 secretion in Rab8b reconstituted cells”, the “apoptosis of LLC1 cells by CM from CQ-treated Par-4+/+ MEFs” value (LLC1 cells) was “induced apoptosis of LLC1 cells” and the “co-localization of Par-4 with Rab8b containing vesicles” value (Par-4 [4]; relative to vehicle) was “increase in the co-localization”. For the same compound, the “apoptosis of Par-4-resistant cancer cells with CQ-treated Par-4+/+ MEFs” value (cancer cells [8]; DU145, A549 cells (internal control), CQ 20 μM) was “resistant to apoptosis”, the “apoptosis of cancer cells co-cultured with CQ-treated Par-4+/+ MEFs” value (cancer cells [8]; PC-3, H460, H1299, HOP92, KP7B cells, CQ 20 μM, not with Par-4-/- MEFs) was “sensitive to apoptosis” and the “cancer cell apoptosis by CM of CQ-treated Par-4+/+ MEFs” value (cancer cells [8]; inhibited by Par-4 antibody or GRP78 antibody) was “Cancer cell apoptosis was also induced”. The “apoptosis of normal cells co-cultured with CQ-treated Par-4+/+ MEFs” value (cancer cells [8]; normal HEL cells, CQ 20 μM) was “not normal HEL cells”, the “inhibition of growth and proliferation, radiation plus CQ” value (A549 lung cancer cells) was “greater than additive effect” and the “inhibition of growth and proliferation, CQ plus ionizing radiation” value [9] was “greater than additive effect”. For the same compound, the “growth of subcutaneous tumor xenografts (tumor volume)” value (H460 or LLC1 cells) was “failed to inhibit the growth”, the “secretion of Par-4 in the CM” value (Par-4 [10]) was “dose-dependent secretion of Par-4” and the “p53-responsive genes p21 and PIG3” value (p53 [11]; MEFs and normal mouse lung tissues) was “upregulation of p53-responsive genes p21 and PIG3”. For the same compound, the p53 induction (p53 [11]; cancer cells) was “neither induced p53”, the “expression of UACA” value (UACA; MEF and HEL, CQ 25 μM) was “inhibited the expression of UACA” and the UACA downregulation (UACA; cancer cells) was “failed to downregulate UACA”. For the same compound, the “expression of UACA and NF-κB-regulated genes cIAP1 and XIAP” value (UACA; p53-dependent, wild type vs p53-/- MEFs, CQ 25 μM) was “inhibited the expression of UACA and NF-κB-regulated genes cIAP1 and XIAP”, the “expression of UACA” value (UACA; p53 null MEFs, CQ 25 μM) was “not p53 null MEFs” and the “secretion of Par-4 in the CM” value (Par-4 [12]) was “dose-dependent secretion of Par-4”. For the same compound, the “Par-4 RNA level” value (Par-4 [13]) was “did not induce Par-4 at the RNA level”.
For CCN(CCO)CCCC(C)Nc1ccnc2cc(Cl)ccc12 (stereo not drawn) [HCQ, hydroxychloroquine], the “ex vivo apoptosis of cancer cells with post-HCQ treatment serum” value (cancer cells [14]) was “underwent apoptosis”, the “induction of Par-4 in patient serum following HCQ treatment” value (Par-4 [15]; one renal cell carcinoma patient, HCQ 400 mg daily for 2 weeks) was ~3 fold and the “Par-4 levels in patient serum” value (Par-4 [15]; renal cell carcinoma patients, HCQ 400 mg daily oral for 2 weeks, post vs pre treatment) was “elevated levels of Par-4 relative to pre-treatment levels”.
For COc1ccc(C2=N[C@@H](c3ccc(Cl)cc3)[C@@H](c3ccc(Cl)cc3)N2C(=O)N2CCNC(=O)C2)c(OC(C)C)c1 [Nutlin-3a], the Par-4 secretion (Par-4 [1]) is listed as “induced Par-4 secretion in a p53-dependent manner” and the “secretion … in mice” value (Par-4 [2]) is listed as “can increase secretion of Par-4”.
For O=C(Nc1cc(Cl)cc2c1[nH]c1cnccc12)c1cccnc1 [PS-1145], the “apoptosis of A549 cells by CM from CQ-treated MEFs” value (cancer cells [8]; A549 cells pretreated with PS-1145 10 μM, 24 h) is given as “sensitized to apoptosis” and the “secretion … in mice” value (Par-4 [2]) is given as “can increase secretion of Par-4”.
With COc1cc(/C=C/C(=O)CC(=O)/C=C/c2ccc(O)c(OC)c2)ccc1O [curcumin] the Par-4 secretion (Par-4 [16]; curcumin alone 5 μM and 10 μM) was “enhances Par-4 secretion”.
For CC(C)Cc1ccc(C(C)C(=O)O)cc1 (stereo not drawn) [ibuprofen], the “secretion of Par-4 compared with chloroquine alone” value (Par-4 [16]; ibuprofen 750 μM with chloroquine 25 μM) was “significantly improves the secretion of Par-4” and the “production or secretion of Par-4” value (Par-4 [16]; ibuprofen alone 500 μM or 750 μM) was “does not enhance the production or secretion of Par-4”.
